Experimental data: paper PMC7615185, “Structural basis for ion selectivity in potassium-selective channelrhodopsins” (Cell, 2023)

Biological target: T1, HcKCR1 (Hyphochytrium catenoides, UniProt A0ABF7PQA2, A110C)
T1 construct: M1-S265; 7TM rhodopsin domain; Sf9, HA signal/FLAG and eGFP-His10-Rho1D4 tags cleaved by 3C, MSP1E3D1/SoyPC nanodisc; residues 6-260 modelled; homotrimer; eYFP fusion in HEK293 for patch clamp
T1 sequence (A0ABF7PQA2 1-265 A110C): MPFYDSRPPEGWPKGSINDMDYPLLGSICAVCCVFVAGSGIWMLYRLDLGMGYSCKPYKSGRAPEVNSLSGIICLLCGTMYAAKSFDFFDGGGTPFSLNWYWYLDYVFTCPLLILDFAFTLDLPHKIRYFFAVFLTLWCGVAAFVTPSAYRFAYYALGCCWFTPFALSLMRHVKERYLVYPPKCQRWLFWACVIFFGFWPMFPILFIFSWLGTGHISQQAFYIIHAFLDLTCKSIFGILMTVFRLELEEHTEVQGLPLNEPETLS
Test: cryo-EM structure, retinal isomer by HPLC
Format: binding
Conditions: dark state, nanodisc, pH 7.5; covalent Schiff base to K233

SMILES: CC1=C(/C=C/C(C)=C/C=C/C(C)=C/C=O)C(C)(C)CCC1 [all-trans-retinal]
- cryo-EM structure, retinal isomer by HPLC: accurate modeling of most residues of both HcKCRs
